Earlier results in patent US20210196661A1, “METHOD FOR AMELIORATION OF INSULIN RESISTANCE” (priority 2019, published 2021).

Columns and labels:
[1] = in vivo
[2] = system: integrated stress response (ISR); settings: mice

half life [1] [h]	SMILES	age-related memory impairment [2]	levels of ATF4 [2]	levels of phosphorylated eIF2a [2]
120 to 170	N[C@@H](Cc1cc(I)c(Oc2cc(I)c(O)c(I)c2)c(I)c1)C(=O)O [T4, L-thyroxine]			
	O=C(COc1ccc(Cl)cc1)NC1CCC(NC(=O)COc2ccc(Cl)cc2)CC1 (stereo not shown) [ISM]	rapidly reverses	decreases	decreases
